Experimental data from PubChem BioAssay AID248 (DTP/NCI, 2004).
Values joined by “and” are separate entries in the source; they are usually repeats but may differ in a detail not shown here. Equal values may be shown once. Inconclusive results and toxic doses are left out. No stated cut-off is given here; in the data, active means T/C of 150% or more; inactive means T/C below 125%.

Test system: L1210 leukemia ip in BDF1 mice, survival T/C
Test: NCI In Vivo Anticancer Drug Screen. Data for tumor model L1210 Leukemia (intraperitoneal) in B6D2F1 (BDF1) mice
Conditions: endpoint: mean survival time, higher = longer survival
How it was run: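 Tumor cells were implanted, animals were treated, and survival was followed. The result divides the treated measurement by the vehicle-control measurement.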

[1] = dose: 100.0 mg/kg/injection, schedule: Q01DX001 (ip), vehicle: saline
[2] = dose: 200.0 mg/kg/injection, schedule: Q01DX001 (ip), vehicle: saline
[3] = dose: 400.0 mg/kg/injection, schedule: Q01DX001 (ip), vehicle: saline
[4] = dose: 100.0 mg/kg/injection, schedule: Q01DX001 (ip), vehicle: carboxymethylcellulose (CMC)
[5] = dose: 200.0 mg/kg/injection, schedule: Q01DX001 (ip), vehicle: carboxymethylcellulose (CMC)
[6] = dose: 400.0 mg/kg/injection, schedule: Q01DX001 (ip), vehicle: carboxymethylcellulose (CMC)
[7] = dose: 100.0 mg/kg/injection, schedule: Q01DX009 (ip), vehicle: Klucel (hydroxypropylcellulose) (HPC)
[8] = dose: 200.0 mg/kg/injection, schedule: Q01DX009 (ip), vehicle: Klucel (hydroxypropylcellulose) (HPC)
[9] = dose: 400.0 mg/kg/injection, schedule: Q01DX009 (ip), vehicle: Klucel (hydroxypropylcellulose) (HPC)
[10] = dose: 100.0 mg/kg/injection, schedule: Q04DX003 (ip), vehicle: saline with Tween-80

Measured: T/C

NC(=O)C(N)CCO (centres undefined)
inactive: dose: 75.0 mg/kg/injection, schedule: Q04DX003 (ip), vehicle: saline 104 % of control | dose: 150.0 mg/kg/injection, schedule: Q04DX003 (ip), vehicle: saline 104 % of control | dose: 300.0 mg/kg/injection, schedule: Q04DX003 (ip), vehicle: saline 100 % of control

O=CN/N=C/c1c[nH]c(=O)[nH]c1=O
inactive: [1] 101 % of control | [2] 106 % of control | [3] 95 % of control

CNc1c(Cl)cc(/C=C2\C=Cc3ccccc32)cc1Cl
inactive: [4] 101 % of control | [5] 101 % of control | [6] 95 % of control

CCN(CC)c1ccc(SC#N)cc1
inactive: [1] 101 % of control

Cn1ncc2c(N)ncnc21
inactive: dose: 6.0 mg/kg/injection, schedule: Q01DX015 (ip), vehicle: carboxymethylcellulose (CMC) 108 % of control | dose: 12.0 mg/kg/injection, schedule: Q01DX015 (ip), vehicle: carboxymethylcellulose (CMC) 101 % of control | dose: 12.5 mg/kg/injection, schedule: Q01DX009 (ip), vehicle: Klucel (hydroxypropylcellulose) (HPC) 102 % of control | dose: 25.0 mg/kg/injection, schedule: Q01DX009 (ip), vehicle: Klucel (hydroxypropylcellulose) (HPC) 107 % of control | dose: 25.0 mg/kg/injection, schedule: Q01DX015 (ip), vehicle: carboxymethylcellulose (CMC) 108 % of control | dose: 50.0 mg/kg/injection, schedule: Q01DX009 (ip), vehicle: Klucel (hydroxypropylcellulose) (HPC) 91 % of control | dose: 50.0 mg/kg/injection, schedule: Q01DX015 (ip), vehicle: carboxymethylcellulose (CMC) 101 % of control | [4] 103 % of control | [5] 98 % of control | [6] 106 % of control

CC1(C)OC(N)=C(C(N)=O)C1c1ccc(Cl)cc1 (centres undefined)
inactive: [1] 97 % of control | [2] 95 % of control | [3] 95 % of control

Oc1c(CN2CCCC2)cc(Nc2cc(/C=C/c3ccc(Cl)cc3)nc(/C=C\c3ccc(Cl)cc3)n2)cc1CN1CCCC1
inactive: dose: 1.0 mg/kg/injection, schedule: Q01DX009 (ip), vehicle: Klucel (hydroxypropylcellulose) (HPC) 110 % of control | dose: 3.0 mg/kg/injection, schedule: Q01DX009 (ip), vehicle: Klucel (hydroxypropylcellulose) (HPC) 98 % of control | dose: 6.0 mg/kg/injection, schedule: Q01DX009 (ip), vehicle: Klucel (hydroxypropylcellulose) (HPC) 101 % of control | dose: 12.0 mg/kg/injection, schedule: Q01DX009 (ip), vehicle: Klucel (hydroxypropylcellulose) (HPC) 91 % of control | dose: 12.0 mg/kg/injection, schedule: Q04DX003 (ip), vehicle: saline 88 % of control | dose: 50.0 mg/kg/injection, schedule: Q04DX003 (ip), vehicle: saline 88 % of control

Cc1ccc(NC(=S)N(CCC#N)C2CCCCC2)cc1
inactive: [7] 101 % of control | [8] 104 % of control | [9] 101 % of control

CN(CCO)Cc1ccc2ccccc2c1
inactive: dose: 150.0 mg/kg/injection, schedule: Q01DX015 (ip), vehicle: saline 92 % of control

N#CCCC(C#N)(c1cccnc1)N1CCOCC1 (centres undefined)
inactive: dose: 6.25 mg/kg/injection, schedule: Q04DX002 (ip), vehicle: saline with Tween-80 98 % of control | dose: 12.5 mg/kg/injection, schedule: Q04DX002 (ip), vehicle: saline with Tween-80 98 % of control | dose: 25.0 mg/kg/injection, schedule: Q04DX002 (ip), vehicle: saline with Tween-80 98 % of control

CCOc1ccc2nc(/C=C/c3ccccc3)ccc2c1
inactive: [5] 89 % of control | [6] 101 % of control

COc1cccc2c1C(=O)c1c(O)c3c(c(O)c1C2=O)CC(O)(C(C)=O)CC3OC1OC(COC(C)=O)C(OC(C)=O)C(OC(C)=O)C1NC(=O)C(F)(F)F (centres undefined)
inactive: dose: 0.63 mg/kg/injection, schedule: Q01DX009 (ip), vehicle: Klucel (hydroxypropylcellulose) (HPC) 98 % of control | dose: 1.25 mg/kg/injection, schedule: Q01DX009 (ip), vehicle: Klucel (hydroxypropylcellulose) (HPC) 91 % of control | dose: 2.5 mg/kg/injection, schedule: Q01DX009 (ip), vehicle: Klucel (hydroxypropylcellulose) (HPC) 94 % of control | dose: 5.0 mg/kg/injection, schedule: Q01DX009 (ip), vehicle: Klucel (hydroxypropylcellulose) (HPC) 97 % of control | dose: 10.0 mg/kg/injection, schedule: Q01DX009 (ip), vehicle: Klucel (hydroxypropylcellulose) (HPC) 97 % of control

O=C(O)c1cc(S(=O)(=O)F)cc(S(=O)(=O)F)c1
inactive: dose: 100.0 mg/kg/injection, schedule: Q01DX009 (ip), vehicle: saline with Tween-80 86 % of control

CCCCCP(=O)(O)O
inactive: dose: 100.0 mg/kg/injection, schedule: Q04DX002 (ip), vehicle: saline 92 % of control | dose: 200.0 mg/kg/injection, schedule: Q04DX002 (ip), vehicle: saline 99 % of control

O=C(C(=O)c1ccco1)c1ccccc1
inactive: dose: 75.0 mg/kg/injection, schedule: Q01DX001 (ip), vehicle: carboxymethylcellulose (CMC) 100 % of control | dose: 150.0 mg/kg/injection, schedule: Q01DX001 (ip), vehicle: carboxymethylcellulose (CMC) 102 % of control | dose: 300.0 mg/kg/injection, schedule: Q01DX001 (ip), vehicle: carboxymethylcellulose (CMC) 97 % of control

Cc1ccc(S(=O)(=O)NC(c2ccccc2)(c2ccccc2)c2ccc([N+](=O)[O-])cc2)cc1
inactive: dose: 100.0 mg/kg/injection, schedule: Q01DX009 (ip), vehicle: saline 100 % of control | dose: 200.0 mg/kg/injection, schedule: Q01DX009 (ip), vehicle: saline 103 % of control | dose: 400.0 mg/kg/injection, schedule: Q01DX009 (ip), vehicle: saline 101 % of control

Clc1ccc(C(c2cccs2)N2CCNCC2)cc1 (centres undefined)
inactive: dose: 25.0 mg/kg/injection, schedule: Q01DX009 (ip), vehicle: saline with Tween-80 96 % of control | dose: 50.0 mg/kg/injection, schedule: Q01DX009 (ip), vehicle: saline with Tween-80 90 % of control | [10] 98 % of control

COc1c(C)c(C)c(OC)c(CC(=O)O)c1C
inactive: [10] 93 % of control | dose: 200.0 mg/kg/injection, schedule: Q04DX003 (ip), vehicle: saline with Tween-80 90 % of control | dose: 400.0 mg/kg/injection, schedule: Q04DX003 (ip), vehicle: saline with Tween-80 93 % of control

CC(=O)Nc1ccc(/C(C#N)=C/c2ccc(N(C)CCC#N)cc2)cc1
inactive: [7] 98 % of control | [8] 100 % of control | [9] 96 % of control

O=C1CCc2ccsc21
inactive: dose: 100.0 mg/kg/injection, schedule: Q04DX002 (ip), vehicle: saline with Tween-80 97 % of control | dose: 200.0 mg/kg/injection, schedule: Q04DX002 (ip), vehicle: saline with Tween-80 97 % of control

N#CCCP(CCC#N)CCCCCCP(CCC#N)CCC#N
inactive: dose: 25.0 mg/kg/injection, schedule: Q04DX003 (ip), vehicle: saline with Tween-80 97 % of control | dose: 50.0 mg/kg/injection, schedule: Q04DX003 (ip), vehicle: saline with Tween-80 90 % of control | [10] 96 % of control and 90 % of control

O=C(O)c1c(O)cc(=O)oc1-c1ccc(Cl)cc1
inactive: [4] 87 % of control | [5] 92 % of control | [6] 100 % of control
